From patent EP2982368A1, “Small molecule compounds displacing focal adhesion core components” (Universität Konstanz, priority 2014, dated 2016) come the findings set out here.

One assay deals with T1, FAK/Paxillin (Mus musculus, UniProt P34152+Q8VI36).
T1 construct: expressed in transfected cells; host or cells: mouse fibroblasts stably expressing GFP-FAK
The assay can be described thus: FAK/Paxillin displacement by structurally related compounds (FootLocker series, confocal microscopy). Type of assay: cell-based. On the set-up: key to Activtiy (activity towards FAK/Paxillin displacement): ++ indicates displacing effect at 5 µM; + at 20 µM; - indicates no observed effect. The method, then:
To determine whether compounds structurally related to Mb31 and Mb36 are likewise suitable to interfere with FAK localization at focal adhesions, mouse fibroblasts stably expressing GFP-FAK were treated for 30 min with 1, 10 or 20 µM of the following compounds: trans-3-hydroxy-β-nitrostyrene (THBN), trans-4-Chloro-β-nitrostyrene (T4CN), trans-β-nitrostyrene (TBN), 4-chlorocinnamic acid (4CA), and trans-3-(4-bromothiophen-2-yl)acrylic acid (T34BA) (Figures 16 and 17). The cells were analyzed by confocal microscopy for GFP-FAK localization. DMSO treatment served as a vehicle control. […] Additional substituents at the aromatic structures, such as halogen atoms or hydroxy groups may contribute to the reactivity of the compound, but are not essential. Based on these findings, the inventors have extended their structure activity-relationship studies and synthesized additional related compounds, which, similar to Mb31, displace FAK and paxillin at concentrations below 10µM (++), displace FAK and paxillin at concentrations above 10 µM (+), or lack FAK and paxillin displacing activity (-). All these substances were then also nicknamed in the FLocker terminology, resulting in FLocker1 - FLocker24 (Table 2). Table 2: Overview of FootLocker nomenclature, their chemical notation/structure and the activity towards FAK/Paxillin displacement

For assay [1], the system named is MDA-MB-231 breast cancer cells. In words: In vitro wound healing assay. The class given is cell-based, human. Particulars: 3 µM, 25 h, serum-containing growth medium. On the procedure: Image J was used to automatically quantify FAK-containing focal adhesions due to local maxima of fluorescence intensity in the GFP-channel (5 to 70 pixel). The number of cells was automatically counted in the Hoechst channel. To test reproducibility of the system 40 control wells were quantified wherein four positions for each well were imaged. […] GFP-FAK mouse embryonic fibroblasts were seeded on fibronectin and incubated for 1 h with the indicated concentrations of the small compounds, respectively. […] GFP-FAK mouse embryonic fibroblasts were seeded on fibronectin and serum-starved overnight. The indicated concentrations of Mb31 were applied for 30 min. Cells were lysed and analyzed for paxillin and FAK protein level as well as FAK Tyr397 phosphorylation. […] The purified kinase domain of FAK was incubated with increasing amounts of Mb31 for 1 h at 30°C together with poly-Glu-Tyr as a FAK substrate. […] Serum-starved GFP-FAK mouse embryonic fibroblasts were stimulated with normal growth medium and incubated for 5 h with the indicated concentrations of the small molecule compounds, respectively. Cell viability was assessed by MTT assay. […] GFP-FAK MEFs were seeded on fibronectin and serum-starved overnight. Migration was stimulated by replacing the medium with normal growth medium. Migration of single cells was tracked for 8 h in 30 min intervals. Migration was recorded from cells that were cultured without serum (A), with serum (B) or with serum in the presence of 3 µM Mb31 (C). […] (A) GFP-FAK MEFs were seeded and serum-starved as in Figure 10. Cell migration was stimulated with normal growth medium and single cells were tracked for 5 h. (B) Mb31 was added and the same cells were tracked for additional 5 h. (C) Mean velocities of differently treated cells were plotted over time. […] NIH-v-Src fibroblasts were seeded on 2 µg/ml FN in DMEM/0.5%BSA and stimulated with 10 ng/ml EGF or kept unstimulated. […] Mouse embryonic fibroblasts (MEFs) were transfected with talin-mCherry and talin dynamics analyzed in focal adhesions using fluorescence recovery after photobleaching (FRAP). Cells were left untreated (A) or treated with 10 µM of Mb31 (B). In untreated cells, the mCherry intensity recovered, indicating replacement of bleached by non-bleached talin and therefore turnover of talin at focal adhesions. […] (C) Wound closure was microscopically analyzed and evaluated using ImageJ software.
To determine if the migration of transformed cells can be blocked by FLocker1 and related compounds, human breast carcinoma cells (MDA-MB-231) were used in in vitro wound healing assays. […] The ability of the cells to migrate and close the wound space was monitored by microscopy and quantified (Figure 18B and C).

T1 sequence (P34152 whole entry): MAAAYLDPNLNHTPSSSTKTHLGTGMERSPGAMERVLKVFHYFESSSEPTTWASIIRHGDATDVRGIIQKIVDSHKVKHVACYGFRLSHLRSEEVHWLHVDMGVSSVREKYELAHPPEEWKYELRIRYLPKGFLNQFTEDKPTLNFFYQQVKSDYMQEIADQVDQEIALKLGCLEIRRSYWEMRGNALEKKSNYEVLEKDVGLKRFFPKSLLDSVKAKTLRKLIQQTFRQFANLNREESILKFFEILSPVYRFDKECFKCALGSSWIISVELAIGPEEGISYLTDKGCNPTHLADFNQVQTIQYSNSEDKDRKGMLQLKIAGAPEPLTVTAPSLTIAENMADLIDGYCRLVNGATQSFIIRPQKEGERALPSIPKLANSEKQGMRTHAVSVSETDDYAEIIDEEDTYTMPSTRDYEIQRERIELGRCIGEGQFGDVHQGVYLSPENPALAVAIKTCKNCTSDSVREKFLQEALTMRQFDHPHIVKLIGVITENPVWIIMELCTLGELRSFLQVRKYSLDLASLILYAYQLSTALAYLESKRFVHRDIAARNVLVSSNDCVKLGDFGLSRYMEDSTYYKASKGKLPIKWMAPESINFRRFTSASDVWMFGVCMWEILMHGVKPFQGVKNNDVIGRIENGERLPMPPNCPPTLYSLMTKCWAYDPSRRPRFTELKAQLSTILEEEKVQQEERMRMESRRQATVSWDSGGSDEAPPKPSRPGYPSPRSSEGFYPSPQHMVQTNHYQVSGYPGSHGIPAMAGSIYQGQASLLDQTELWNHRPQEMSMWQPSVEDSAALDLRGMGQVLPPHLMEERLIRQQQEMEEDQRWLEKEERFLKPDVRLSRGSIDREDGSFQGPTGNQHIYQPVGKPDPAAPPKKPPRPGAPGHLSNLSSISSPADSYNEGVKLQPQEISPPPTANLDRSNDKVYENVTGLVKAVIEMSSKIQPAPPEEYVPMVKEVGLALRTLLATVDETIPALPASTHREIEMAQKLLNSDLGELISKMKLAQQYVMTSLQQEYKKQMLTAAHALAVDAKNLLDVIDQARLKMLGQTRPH
T1 sequence (Q8VI36 whole entry): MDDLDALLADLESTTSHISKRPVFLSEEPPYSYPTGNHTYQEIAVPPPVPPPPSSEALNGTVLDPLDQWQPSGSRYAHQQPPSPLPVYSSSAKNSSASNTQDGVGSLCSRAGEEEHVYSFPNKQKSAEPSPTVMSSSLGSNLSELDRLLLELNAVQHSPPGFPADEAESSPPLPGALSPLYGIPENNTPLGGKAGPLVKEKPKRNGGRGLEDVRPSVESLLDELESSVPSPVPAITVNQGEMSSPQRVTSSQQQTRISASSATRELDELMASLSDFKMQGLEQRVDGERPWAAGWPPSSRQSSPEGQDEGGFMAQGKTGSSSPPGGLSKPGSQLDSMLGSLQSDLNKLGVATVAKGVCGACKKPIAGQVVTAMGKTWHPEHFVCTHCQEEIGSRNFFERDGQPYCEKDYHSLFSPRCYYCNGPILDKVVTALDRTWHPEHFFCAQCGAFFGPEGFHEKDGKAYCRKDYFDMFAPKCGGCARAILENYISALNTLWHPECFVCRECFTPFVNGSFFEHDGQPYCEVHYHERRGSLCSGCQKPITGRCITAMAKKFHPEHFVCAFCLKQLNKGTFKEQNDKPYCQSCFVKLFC

Turning to `Nc1ccc(SC(C[N+](=O)[O-])c2ccc(Cl)cc2)cc1` (stereo not shown) [compound 2], the “Activtiy (activity towards FAK/Paxillin displacement)” value on FAK/Paxillin was “++ (++ indicates displacing effect at 5 µM)”.
On the same count and under the same terms, for `O=[N+]([O-])/C=C/c1cccc(Cl)c1` [compound 12] the value was “+ (+ at 20 µM)”.
Consider `O=[N+]([O-])/C=C/c1cccc([N+](=O)[O-])c1` [FootLocker 13, (E)-1-nitro-3-(2-nitrovinyl)benzene], for which, at FAK/Paxillin, the “compounds showing the most prominent effect on protein-protein interactions at focal adhesion site” value was “most prominent effect” and the “disruption of protein-protein interactions at focal adhesion site” value (from here on “disruption”) is on record as “efficiently disrupt protein-protein interactions at focal adhesion site”.
On to `O=[N+]([O-])/C=C/c1ccc(F)cc1` [compound 14], for which, at FAK/Paxillin, the “Activtiy (activity towards FAK/Paxillin displacement)” value is “++ (++ indicates displacing effect at 5 µM)”.
For `C/C(=C\c1ccccc1)[N+](=O)[O-]` [FootLocker 15, (E)-(2-nitroprop-1-en 1-yl)benzene], the “disruption” value at FAK/Paxillin was “efficiently disrupt protein-protein interactions at focal adhesion site”.
As to `[N-]=[N+]=NCCOCCOCCOCCNC(=O)CCCCCCOc1cccc(/C=C/[N+](=O)[O-])c1` [compound 7], the “Activtiy (activity towards FAK/Paxillin displacement)” value at FAK/Paxillin is “+ (+ at 20 µM)”.
The same measure, in the same setting: the entry for `CCOC(=O)CCCCCOc1ccc(/C=C/[N+](=O)[O-])cc1` [compound 5] is “+ (+ at 20 µM)”.
On to `[N-]=[N+]=NCCOCCOCCOCCNC(=O)CCCCCCOc1cccc(/C=C/[N+](=O)[O-])c1` [FootLocker 7, (E)-N-(2-(2-(2-(2-azidoethoxy)ethoxy)ethoxy)ethyl)-7-(3-(2-nitrovinyl)phenoxy)heptanamide], for which the “disruption” value on FAK/Paxillin was “efficiently disrupt protein-protein interactions at focal adhesion site”.
As for `C/C(=C\c1ccc(Br)cc1)[N+](=O)[O-]` [FootLocker 16, 1-bromo-4-[(1E)-2-nitro-1-propenyl]benzene], at FAK/Paxillin, the “compounds showing the most prominent effect on protein-protein interactions at focal adhesion site” value is recorded as “most prominent effect” and the “disruption” value is listed as “efficiently disrupt protein-protein interactions at focal adhesion site”.
With `O=[N+]([O-])/C=C/c1cn(-c2ccccc2)c2ccccc12` [compound 20], on FAK/Paxillin, the “Activtiy (activity towards FAK/Paxillin displacement)” value is “-”.
For `O=[N+]([O-])/C=C/c1ccccc1F` [FootLocker 9, (E)-1-fluoro-2-(2-nitrovinyl) benzene], in assay [1], the “migration of cancer cells / wound closure” value is “retarded the migration of the cancer cells”. For the same molecule, on FAK/Paxillin, the “compounds showing the most prominent effect on protein-protein interactions at focal adhesion site” value is “most prominent effect” and the “disruption” value is listed as “efficiently disrupt protein-protein interactions at focal adhesion site”.
For `Cc1ccc(/C=C/[N+](=O)[O-])cc1` [FootLocker 10, (E)-1-methyl-4-(2-nitrovinyl) benzene], on FAK/Paxillin, the “compounds showing the most prominent effect on protein-protein interactions at focal adhesion site” value is on record as “most prominent effect” and the “disruption” value is “efficiently disrupt protein-protein interactions at focal adhesion site”.
Regarding `O=C/C=C/c1ccc(Cl)cc1` [compound 22], the “Activtiy (activity towards FAK/Paxillin displacement)” value at FAK/Paxillin is “-”.
Still for that read-out and setting: the entry for `O=[N+]([O-])/C=C/c1cc(Br)cs1` [compound 1] is “++ (++ indicates displacing effect at 5 µM)”.
In the case of `O=[N+]([O-])/C=C/c1cccc(Cl)c1` [FootLocker 12, (E)-1-chloro-3-(2-nitrovinyl)benzene], the “disruption” value at FAK/Paxillin is on record as “efficiently disrupt protein-protein interactions at focal adhesion site”.
For `C/C(=C\c1ccc(Br)cc1)[N+](=O)[O-]` [compound 16], the “Activtiy (activity towards FAK/Paxillin displacement)” value at FAK/Paxillin is recorded as “++ (++ indicates displacing effect at 5 µM)”.
Regarding `COc1cccc(/C=C/[N+](=O)[O-])c1` [FootLocker 4, (E)-1-methoxy-3-(2-nitrovinyl)benzene], at FAK/Paxillin, the “compounds showing the most prominent effect on protein-protein interactions at focal adhesion site” value was “most prominent effect” and the “disruption” value was “efficiently disrupt protein-protein interactions at focal adhesion site”.
`O=[N+]([O-])/C=C/c1cccc(Br)c1` [compound 11]: on FAK/Paxillin, the “Activtiy (activity towards FAK/Paxillin displacement)” value is on record as “+ (+ at 20 µM)”.
On to `Cc1ccc(/C=C/[N+](=O)[O-])cc1` [compound 10], for which, at FAK/Paxillin, the “Activtiy (activity towards FAK/Paxillin displacement)” value was “++ (++ indicates displacing effect at 5 µM)”.
In the case of `COc1cccc(/C=C/[N+](=O)[O-])c1` [compound 4], the “Activtiy (activity towards FAK/Paxillin displacement)” value at FAK/Paxillin is “++ (++ indicates displacing effect at 5 µM)”.
`O=[N+]([O-])/C=C/c1ccccc1O` [FootLocker 8, (E)-2-(2-nitrovinyl)phenol]: the “disruption” value at FAK/Paxillin is on record as “efficiently disrupt protein-protein interactions at focal adhesion site”.
Take `O=[N+]([O-])/C=C/c1cccnc1` [compound 18]: the “Activtiy (activity towards FAK/Paxillin displacement)” value at FAK/Paxillin is listed as “+ (+ at 20 µM)”.
On the same count and under the same terms, for `O=[N+]([O-])/C=C/c1cccc(O)c1` [compound 3] the value was “++ (++ indicates displacing effect at 5 µM)”.
As for `O=[N+]([O-])/C=C/c1ccccc1F` [compound 9], at FAK/Paxillin, the “Activtiy (activity towards FAK/Paxillin displacement)” value is on record as “++ (++ indicates displacing effect at 5 µM)”.
Still for that read-out and setting: the entry for `O=[N+]([O-])/C=C/c1c[nH]c2ccccc12` [compound 19] is “-”.
For the molecule `O=[N+]([O-])/C=C/c1ccco1` [compound 17], on FAK/Paxillin, the “Activtiy (activity towards FAK/Paxillin displacement)” value is “++ (++ indicates displacing effect at 5 µM)”.
As for `O=[N+]([O-])C=Cc1ccco1` [FootLocker 17, 2-(2-Nitrovinyl)-furan], at FAK/Paxillin, the “compounds showing the most prominent effect on protein-protein interactions at focal adhesion site” value is reported as “most prominent effect” and the “disruption” value is listed as “efficiently disrupt protein-protein interactions at focal adhesion site”.
In the case of `O=[N+]([O-])/C=C/c1cccc(Br)c1` [FootLocker 11, (E)-1-bromo-3-(2-nitrovinyl)benzene], the “disruption” value at FAK/Paxillin is “efficiently disrupt protein-protein interactions at focal adhesion site”.
`O=[N+]([O-])/C=C/c1ccccc1O` [compound 8]: the “Activtiy (activity towards FAK/Paxillin displacement)” value on FAK/Paxillin is on record as “+ (+ at 20 µM)”.
For `O=[N+]([O-])C=Cc1cccnc1` [FootLocker 18, 3-(2-nitro-vinyl)-pyridine], at FAK/Paxillin, the “disruption” value is “efficiently disrupt protein-protein interactions at focal adhesion site”.
`[N-]=[N+]=NCCOCCOCCOCCNC(=O)CCCCCCOc1cccc(C=O)c1` [compound 6]: the “Activtiy (activity towards FAK/Paxillin displacement)” value on FAK/Paxillin is “-”.
On to “(E)-ethyl 6-(4-(2-nitrovinyl)phenoxy)hexanoate [FootLocker 5]”, for which, on FAK/Paxillin, the “disruption” value is “efficiently disrupt protein-protein interactions at focal adhesion site”.
As to `O=C(O)/C=C/c1cc(Br)cs1` [compound 24], the “Activtiy (activity towards FAK/Paxillin displacement)” value at FAK/Paxillin is recorded as “-”.
